Laboratory results: ChEMBL document CHEMBL4000221 (Bioorg Med Chem Lett, 2017)

How the values were obtained:
[1] = species on record: Homo sapiens; experiment: Selectivity ratio of EC50 for inhibition of [3H]-S-citalopram dissociation from SERT allosteric modulator site (S2) (unknown origin) expressed in African green monkey COS1 cell membranes to IC50 for [3H]5-HT uptake by SERT primary site (S1) (unknown origin) expressed in African green monkey COS1 cells; assay type: cell-based
[2] = molecular target: T1, Sodium-dependent serotonin transporter (Homo sapiens, UniProt P31645); experiment: Inhibition of [3H]5-HT uptake by SERT primary site (S1) (unknown origin) expressed in African green monkey COS1 cells after 10 mins by TopCount scintillation counting method; assay type: cell-based
[3] = molecular target: T1, Sodium-dependent serotonin transporter
[4] = molecular target: T1, Sodium-dependent serotonin transporter; remark: listed apart in the source
[5] = species on record: Homo sapiens; experiment: Selectivity ratio of EC50 for inhibition of [3H]-S-citalopram dissociation from human SERT allosteric modulator site (S2) expressed in African green monkey COS7 cell membranes to IC50 for displacement of [3H]-S-citalopram from human SERT primary site (S1) expressed in African green monkey COS7 cell membranes
[6] = molecular target: T1, Sodium-dependent serotonin transporter; remark: listed apart in the source

T1 sequence (P31645 whole entry): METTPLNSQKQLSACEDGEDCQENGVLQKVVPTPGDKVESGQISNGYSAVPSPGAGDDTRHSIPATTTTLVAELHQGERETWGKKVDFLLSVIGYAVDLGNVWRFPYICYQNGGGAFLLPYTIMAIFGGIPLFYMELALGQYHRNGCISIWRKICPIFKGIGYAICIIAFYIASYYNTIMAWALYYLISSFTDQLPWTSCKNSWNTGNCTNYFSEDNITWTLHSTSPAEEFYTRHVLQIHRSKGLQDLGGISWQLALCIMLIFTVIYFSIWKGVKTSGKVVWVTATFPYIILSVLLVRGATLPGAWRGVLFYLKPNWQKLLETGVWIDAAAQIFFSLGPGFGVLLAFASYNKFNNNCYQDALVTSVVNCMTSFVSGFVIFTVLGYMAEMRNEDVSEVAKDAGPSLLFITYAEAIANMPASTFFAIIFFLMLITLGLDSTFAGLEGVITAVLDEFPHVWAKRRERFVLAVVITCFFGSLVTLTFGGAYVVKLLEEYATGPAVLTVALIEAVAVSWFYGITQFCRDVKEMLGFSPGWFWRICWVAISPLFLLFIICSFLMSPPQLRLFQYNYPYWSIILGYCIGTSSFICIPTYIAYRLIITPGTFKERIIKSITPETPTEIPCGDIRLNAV

SMILES | IC50 [2] [nM] | EC50 [3] [nM] | IC50 [4] [nM] | Selectivity ratio [5] | EC50 [6] [nM] | Selectivity ratio [1]
CN(C)CCCC1(c2cc(Cl)cc(Cl)c2)OCc2ccccc21 (single isomer, unassigned; enantiomer 1) [listing 1 of 2 here] |  |  |  |  |  | 25
CN(C)CCCC1(c2ccc3ccccc3c2)OCc2cc(C#N)ccc21 (single isomer, unassigned; enantiomer 2) [listing 1 of 2 here] |  |  |  |  |  | 370
CN(C)CCCC1(c2cc(Cl)cc(Cl)c2)OCc2ccccc21 (stereo in doubt; 4) [listing 1 of 2 here] | 340 | 15000 |  |  |  | 
CN(C)CCCC1(c2ccc3ccccc3c2)OCc2cc(C#N)ccc21 (single isomer, unassigned) [listing 1 of 2 here] |  |  |  |  |  | 4100
CN(C)CCCC1(c2cccc3ccccc23)OCc2cc(C#N)ccc21 (single isomer, unassigned; enantiomer 2) [listing 1 of 2 here] |  |  |  |  |  | 68
CN(C)CCCC(=O)c1ccc2c(c1)COC2(CCCN(C)C)c1ccc(F)cc1 (stereo not drawn) | 1.6 | 714000 |  |  |  | 450000
CCCCCN(C)CCC[C@@]1(c2ccc(F)cc2)OCc2cc(C#N)ccc21 |  |  | 75 | 21 | 1600 | 
CN(C)CCCC1(c2cccc3ccccc23)OCc2cc(C#N)ccc21 (single isomer, unassigned; enantiomer 1) [listing 1 of 2 here] |  |  |  |  |  | 19
CN(C)CCCC1(c2cc(Cl)cc(Cl)c2)OCc2ccccc21 (single isomer, unassigned; enantiomer 2) [listing 1 of 2 here] | 300 | 20000 |  |  |  | 
CN(C)CCCC1(c2ccc(Cl)c(Cl)c2)OCc2ccccc21 (stereo not drawn) | 13 | 29600 |  |  |  | 2300
CN(C)CCCC1(c2cccc3ccccc23)OCc2cc(C#N)ccc21 (stereo in doubt; 2) [listing 1 of 2 here] |  |  |  |  |  | 76
CN(C)CCCC1(c2cc(Cl)cc(Cl)c2)OCc2ccccc21 (single isomer, unassigned; enantiomer 2) [listing 2 of 2 here] |  |  |  |  |  | 67
CN(C)CCCC1(c2ccc3ccccc3c2)OCc2cc(C#N)ccc21 (stereo in doubt; 1) [listing 2 of 2 here] |  |  |  |  |  | 2000
CN(C)CCCC1(c2cc(Cl)cc(Cl)c2)OCc2ccccc21 (stereo in doubt; 4) [listing 2 of 2 here] |  |  |  |  |  | 44
CN(C)CCCC1(c2cc(Cl)cc(Cl)c2)OCc2ccccc21 (single isomer, unassigned; enantiomer 1) [listing 2 of 2 here] | 350 | 8800 |  |  |  | 

Now from value to molecule, other results behind:

IC50 [2] [nM] | EC50 [3] [nM] | IC50 [4] [nM] | Selectivity ratio [5] | EC50 [6] [nM] | SMILES | Selectivity ratio [1]
8 | 95000 |  |  |  | CN(C)CCCC1(c2ccc(F)cc2)OCc2cc3ccccc3cc21 (stereo not drawn) | 12000
 |  | 160 | 18 | 2900 | CCCCN(C)CCC[C@@]1(c2ccc(F)cc2)OCc2cc(C#N)ccc21 | 
740 | 14000 |  |  |  | CN(C)CCCC1(c2cccc3ccccc23)OCc2cc(C#N)ccc21 (single isomer, unassigned; enantiomer 1) [listing 2 of 2 here] | 
 |  | 2400 | 8.5 | 20300 | CCCN(C)CCC[C@]1(c2ccc(F)cc2)OCc2cc(C#N)ccc21 | 
12 | 38000 |  |  |  | CN(C)CCCC1(c2ccc(F)cc2)OCc2ccc3ccccc3c21 (stereo not drawn) | 3200
280 | 19000 |  |  |  | CN(C)CCCC1(c2cccc3ccccc23)OCc2cc(C#N)ccc21 (single isomer, unassigned; enantiomer 2) [listing 2 of 2 here] | 
 |  | 2300 | 8.7 | 19900 | CCN(C)CCC[C@]1(c2ccc(F)cc2)OCc2cc(C#N)ccc21 | 
34 | 68000 |  |  |  | CN(C)CCCC1(c2ccc3ccccc3c2)OCc2cc(C#N)ccc21 (stereo in doubt; 1) [listing 1 of 2 here] | 
 |  | 1100 | 13 | 14500 | CCCCN(C)CCC[C@]1(c2ccc(F)cc2)OCc2cc(C#N)ccc21 | 
10 | 41000 |  |  |  | CN(C)CCCC1(c2ccc3ccccc3c2)OCc2cc(C#N)ccc21 (single isomer, unassigned) [listing 2 of 2 here] | 
250 | 19000 |  |  |  | CN(C)CCCC1(c2cccc3ccccc23)OCc2cc(C#N)ccc21 (stereo in doubt; 2) [listing 2 of 2 here] | 
150 | 55000 |  |  |  | CN(C)CCCC1(c2ccc3ccccc3c2)OCc2cc(C#N)ccc21 (single isomer, unassigned; enantiomer 2) [listing 2 of 2 here] | 
 |  | 280 | 28 | 7700 | CCN(C)CCC[C@@]1(c2ccc(F)cc2)OCc2cc(C#N)ccc21 | 
 |  | 190 | 31 | 5900 | CCCN(C)CCC[C@@]1(c2ccc(F)cc2)OCc2cc(C#N)ccc21 | 
4 | 31000 |  |  |  | CN(C)CCCC1(c2ccc(F)cc2)OCc2c1ccc1ccccc21 (stereo not drawn) | 7800
